Each block holds one molecule with its values, some of them ahead of it. Non-standard residues stand in square brackets, D forms with d. Residues, ends and D or L forms follow the SMILES beside them. *: point of attachment. Sta = CC(C)C[C@H](N)[C@@H](O)CC(=O)O; Isovaleryl = CC(C)CC(=O)*; Cbz = O=C(OCc1ccccc1)*; CH2F = FC*
Key:
melanoma = details: naked pIC, clinical studies (Robinson et al., 1976); cited from earlier work
MDA-5 = MDA-5 proteolytic cleavage by immunoblotting; format: cell-based, human; details: SK-Mel-28 and SK-Mel-147 cell extracts
Procedure: This analysis was carried out by immunoblotting extracts from SK-Mel-28 and SK-Mel-147 cells treated with PEI, pIC or BO-110, after subjecting these extracts to electrophoresis. As a positive control for efficient induction of cell death bortezomib was used.

IFIT-1 [1] = assay: IFIT-1 mRNA by quantitative PCR, B16 melanoma cells; format: cell-based, mouse
Procedure: (§1) Human interferon alpha was measured in culture supernatants by enzyme-linked immunoabsorbent assay (ELISA). The human IFN-α ELISA Kit and recombinant hIFN-α were purchased from PBL Interferon Source (Piscataway, N.Y.) and used according to the manufacturer's protocol. IFN-α expression level was measured from bone-marrow-derived macrophages (BMDMs) and B16 melanoma cells by real-time PCR. BMDMs were prepared, plated and treated as previously described (Celada et al., 1984). Real-time quantitative PCR analysis of IFIT-1 RNA transcripts was performed using TAQMAN® primer and probes obtained from Applied Biosystems on an Applied Biosystems 7700 sequence detector after normalization with […].
(§2) pIC is a classical inducer of IFN-driven cellular immunity (Wenzel et al., 2008). […] To assess this possibility, B16 melanoma cells and macrophages were tested for their ability to secrete and respond to IFN-α. […] This is expected, as these cells can efficiently sense viral dsRNA.

IFIT-1 [2] = assay: IFIT-1 mRNA by quantitative PCR, bone-marrow-derived macrophages; format: cell-based
Procedure: as §1, §2

[3] = tested on: melanoma cell lines (SK-Mel-19, -28, -103, -147, and B16); assay: Cell death by trypan blue exclusion, melanoma cell lines; format: cell-based, human and murine; details: naked pIC versus PEI-complexed pIC
Procedure: (§3) Cell viability assays in response to drug treatments were done after seeding melanocytes and melanoma cells at least 12 hours before drug treatment. The percentage of cell death at the indicated times and treatment concentrations was estimated by standard trypan blue exclusion assays as previously described (Wolter et al., 2007; Fernández et al., 2005).
With these lines, tests were conducted similar to those described in Example 1 for SK-Mel-103 cell line, to verify the sensitivity of each of these cells to pIC and PEI as independent agents or used in combination.

SK-Mel-103 cells [4] = assay: Ultrastructural analysis by transmission electron microscopy; format: cell-based, human; details: 5-12 h after treatment
Procedure: For transmission electron microscopy (TEM), the indicated cell populations were rinsed with […] buffer, pH 7.5 and fixed in 2.5% glutaraldehyde for 1.5 h, and subsequently dehydrated and embedded in Spurr's resin. Then, the block was sectioned at 60-100 nm ultra thin sections and picked up on copper grids. For routine analysis ultrathin sections were stained with 2% uranyl acetate and lead citrate. Electron micrographs were acquired with a Philips CM-100 transmission electron microscope (FEI, Hillsbrough, Oreg.) and a KODAK™ 1.6 MEGAPLUS™ digital camera.
The GFP-LC3 focal staining in cells treated with BO-110 described in the previous paragraph is consistent with the formation of autophagosomes. However, to rule out possible unspecific aggregations of ectopically expressed GFP-LC3 (Klionsky et al., 2008), the response was analyzed independently by electron microscopy (FIG. 1D).

NOXA = NOXA protein levels by immunoblotting and densitometry; format: cell-based, human; details: SK-Mel-28 or SK-Mel-147 melanoma cells
SK-Mel-103 = assay: Cell death by trypan blue exclusion, SK-Mel-103; format: cell-based, human
SK-Mel-103 cells [5] = assay: Confocal microscopy of autolysosomes, lysosomal activity and endosomes; format: cell-based, human
Description: An eGFP-LC3 fusion cloned into the pCNA expression vector was a gift from Gabriel Nidiez (University of Michigan Cancer Center). eGFP-LC3 and the fragments eGFP-Rab7wt, eGFP-Rab7 T22N, eGFP-Rab5wt, eGFP-Cherry-LC3 and Cherry-LC3 were cloned into the pLVO-puro lentiviral vector for stable gene transfer. Melanoma derived cells (i.e., SK-Mel-103) were infected with pLVO-eGFP-LC3 and selected with puromycin. GFP-LC3-associated fluorescence emission was imaged using a LEICA™ AF6000 fluorescence microscope and images were analyzed by LAS AF V1.9 (Leica, Solms, Germany). […] Images were analyzed by LCS (Leica, Solms, Germany). […] Co-localization images were analyzed with LAS AF V1.9 (Leica, Solms, Germany). […]
To independently monitor lysosomal activity during BO-110 treatment, cells were tested for the ability to process DQ-BSA (a derivative of BSA whose green fluorescence is quenched unless cleaved by proteolytic enzymes). […] Note that DQ-BSA emission was detected at the lysosomes, as indicated by colocalization with LYSOTRACKER® Red, a dye whose cell permeability is pH dependent and emits red fluorescence when incorporated into functional lysosomes acids). […]
Having determined that autophagosomes fuse to active lysosomes in response to BO-110, we assessed whether these organelles interacted with or were recruited to endosomes.

[6] = tested on: SK-Mel-103 melanoma cells; assay: GFP-LC3 foci fluorescence analysis of autophagy; format: cell-based, human; details: with BO-110 treatment, 12 h
Procedure: An eGFP-LC3 fusion cloned into the pCNA expression vector was a gift from Gabriel Nidiez (University of Michigan Cancer Center). eGFP-LC3 and the fragments eGFP-Rab7wt, eGFP-Rab7 T22N, eGFP-Rab5wt, eGFP-Cherry-LC3 and Cherry-LC3 were cloned into the pLVO-puro lentiviral vector for stable gene transfer. […] GFP-LC3-associated fluorescence emission was imaged using a LEICA™ AF6000 fluorescence microscope and images were analyzed by LAS AF V1.9 (Leica, Solms, Germany). For confocal real time microscopy, we used a LEICA™ TCS-SP2-AOBS-UV ultra-spectral microscope coupled to a CO2 and temperature-controlled incubation chamber. Images were analyzed by LCS (Leica, Solms, Germany). […] Co-localization images were analyzed with LAS AF V1.9 (Leica, Solms, Germany).
To address the role of autophagy in the response of melanoma to drugs, a discriminative analysis based in GFP-LC3 was used to screen commercially available chemotherapeutic drugs and immunomodulators. Melanoma cells were stably transfected with lentiviral vectors expressing derivatives of the autophagosomal LC3 marker with GFP, such as pLVO-eGFP-LC3.
Subsequent validation studies were performed on a panel of human cell lines of diverse genetic background (see below).

SK-Mel-147 = assay: Cell death by trypan blue exclusion, SK-Mel-147; format: cell-based, human; details: for effect of antioxidant on cell death by BO-110: BO-110 plus ROS scavenger
MCL-1 = MCL-1 protein levels by immunoblotting; format: cell-based, human; details: melanoma cells
Procedure: To determine changes in protein levels, 2×10^6 cells were treated as indicated and harvested at different times after treatment. Total cell lysates were subjected to electrophoresis in 10, 12 or 4-15% gradient SDS gels under reducing conditions, and subsequently transferred to IMMOBILON-P® (0.45 um pore size hydrophobic polyvinylidene fluoride, PVDF) membranes (Millipore, Bedford, Mass., USA). Protein bands were detected by the ECL system (GE Healthcare, Buckinghamshire, UK).
Secondary antibodies were either anti-mouse or anti-rabbit from GE Healthcare. Image J was used to quantify changes in proteins levels induced by the different treatments, considering untreated controls as reference for basal expression.
To assess similarities and differences between bortezomib and pIC (naked or complexed with PEI), melanoma cells were incubated with each of these compounds and extracts were collected at different time points after treatment to assess the levels of NOXA, MCL-1, and other Bcl-2 family members (Bcl-xL or Bcl-2). Results are shown in FIGS. 9A, 9B, 9C, 9D, 9E, and 9F.

SK-Mel-19 = assay: Cell death by trypan blue exclusion, SK-Mel-19; format: cell-based, human; details: doxorubicin 0.5 μg/ml, 30 h
Procedure: as §3

SK-Mel-28 = assay: Cell death by trypan blue exclusion, SK-Mel-28; format: cell-based, human; details: doxorubicin 0.5 μg/ml, 30 h
Procedure: as §3

[7] = 20 hours after treatment with BO-110

induction of MDA-5 processing (30 kD band) (MDA-5): significantly lower levels
Molecule: polyinosine-polycytidylic acid [pIC]
antitumoral effect for melanoma (melanoma): absence of antitumoral effect for melanoma
induction of IFN (melanoma): low induction of IFN
stability (melanoma): low stability
induction of IFN target IFIT-1 (IFIT-1 [1]): unable to induce IFIT-1
induction of IFN target IFIT-1 (IFIT-1 [2]): PEI was dispensable for pIC-mediated induction of IFN targets
reduction of antimelanoma activity of pIC when PEI was not included [3]: 70-80%
autophagosome formation (electron microscopy) (SK-Mel-103 cells [4]): minimal activity as inducer of autophagy
NOXA induction (in words) (NOXA): failed to induce NOXA consistently or in a sustained manner

Molecule: CCN(CC)CCCC(C)Nc1ccnc2cc(Cl)ccc12 (stereo not drawn) [chloroquine, Chloroquine]
inhibitory effect on cell death triggered by BO-110 (SK-Mel-103; [7]): blocked melanoma cell death triggered by BO-110
lysosomal proteolysis: DQ-BSA cleavage (SK-Mel-103 cells [5]): minimum of fluorescence emission due to DQ-BSA
effect of autophagy inhibitor on GFP-LC3 foci / autophagosomes induced by BO-110 [6]: autophagosomes accumulated

Molecule: CCOC(=O)[C@H]1O[C@@H]1C(=O)N[C@@H](CC(C)C)C(=O)NCCC(C)C [E64d]
reduction of the extent of cell death by BO-110 (SK-Mel-103; [7]): 50%

Molecule: IFN-α
effect on melanoma cell viability (SK-Mel-103; high doses, 10 times over levels secreted after BO-110, 24 h): unable to affect melanoma cell viability

Molecule: CC(C)CC(=O)N[C@H](C(=O)N[C@H](C(=O)N[C@@H](CC(C)C)[C@@H](O)CC(=O)N[C@@H](C)C(=O)N[C@@H](CC(C)C)[C@@H](O)CC(=O)O)C(C)C)C(C)C [pepstatin A] (Isovaleryl-VV[Sta]A[Sta]-OH)
reduction of the extent of cell death by BO-110 (SK-Mel-103; [7]): 50%

Molecule: Cc1c(C)c2c(c(C)c1O)CCC(C)(C(=O)O)O2 (stereo not drawn) [TROLOX™]
effect of antioxidant on cell death by BO-110 (SK-Mel-147): no significant effects

Molecule: Cn1cnc(N)c2ncnc1-2 [3-MA, 3-methyladenine]
effect of autophagy inhibitor on GFP-LC3 foci / autophagosomes induced by BO-110 [6]: blocked GFP-LC3 foci formation by BO-110

Molecule: vitamin E
effect of antioxidant on cell death by BO-110 (SK-Mel-147): no significant effects

Molecule: COC(=O)C[C@H](NC(=O)[C@H](C)NC(=O)[C@@H](NC(=O)OCc1ccccc1)C(C)C)C(=O)CF [z-VAD-fmk] (Cbz-Val-Ala-Asp(OMe)-CH2F)
inhibition of BO-110 killing (SK-Mel-147; SK-Mel-147, BO-110 plus pan-caspase inhibitor): 70%

Molecule: O=S(=O)([O-])c1cc(O)c(O)c(S(=O)(=O)[O-])c1.[Na+].[Na+] [TIRON™]
effect of antioxidant on cell death by BO-110 (SK-Mel-147): no significant effects

induction of MDA-5 processing (30 kD band) (MDA-5): no effect on MDA-5 levels or processing
Molecule: CC(C)C[C@H](NC(=O)[C@H](Cc1ccccc1)NC(=O)c1cnccn1)B(O)O [bortezomib, Bortezomib]
MCL-1 levels (MCL-1): induces a simultaneous accumulation of MCL-1
NOXA induction (in words) (NOXA): activates NOXA potently

Molecule: COc1cccc2c1C(=O)c1c(O)c3c(c(O)c1C2=O)C[C@@](O)(C(=O)CO)C[C@@H]3O[C@H]1C[C@H](N)[C@H](O)[C@H](C)O1 [DOX, doxorubicin]
DOX: response to doxorubicin, percentage of cell death (SK-Mel-147; SK-Mel-147, doxorubicin 0.5 μg/ml, 30 h): − (<30%)
DOX: response to doxorubicin, percentage of cell death (SK-Mel-19): ++ (100-70)
DOX: response to doxorubicin, percentage of cell death (SK-Mel-103; SK-Mel-103, doxorubicin 0.5 μg/ml, 30 h): − (<30%)
DOX: response to doxorubicin, percentage of cell death (SK-Mel-28): − (<30%)

Source: patent publication US20190117685A1, “PROCESS FOR THE IDENTIFICATION OF COMPOUNDS FOR TREATING CANCER” (FUNDACIÓN CENTRO NACIONAL DE INVESTIGACIONES ONCOLÓGICAS …, priority 2009, published 2019)
